2 compounds from US11564920B2, “5-heteroaryl-1H-pyrazol-3-amine derivative” (Sumitomo Pharma Co., Ltd., priority 2020, dated 2023) can be followed below.

Data set [1] is described as follows: Liposome encapsulation test of Example 1 (Test Example 6A). The class given is physicochemical. As to the method: 11.08 g of Presome ACD-1 (pre-prepared mixture consisting of hydrogenated soybean phosphatidylcholine, cholesterol, and distearoylphosphatidylethanolamine-methoxypolyethylene glycol 2000 at a mass ratio of 3:1:1, Nippon Fine Chemical Co., Ltd.) was weighed out, and 200 mL of 250 mM ammonium sulfate solution was added. The resulting mixture was heated to 65° C. and dispersed with a homogenizer (ULTRA-TURRAX, IKA) to obtain a crude liposome dispersion. […] The mixture was filtered through a 0.22 μm membrane filter to obtain an empty liposome solution with a total lipid concentration of 75 mM (75 μmol/mL).
The compound of Example 1 was weighed out. About 0.4 mL of 10 mM L-histidine buffer/10% sucrose solution (pH 6.5), about 0.1 mL of 0.1 mol/L hydrochloric acid, and 1 mL of the empty liposome solution were added, and the pH was adjusted to 6 to 6.5 by adding 1 mol/L hydrochloric acid. The mixture was heated for 30 minutes in a 65° C. water bath and then cooled with ice. The mixture was then filtered through a 0.22 μm membrane filter.
The liposome encapsulation ratio was calculated as follows. Unencapsulated compound concentration: The compound concentration was measured by HPLC for a solution prepared by adding 100 μL of aqueous 4% phosphoric acid solution to 100 μL of liposome solution. HPLC measurement conditions are the following.
Compound concentration in liposome solution: The liposome solution was diluted with a trifluoroacetic acid/water/methanol mixture (0.1/25/75) and was left standing for 10 minutes or longer at 5° C. The mixture was centrifuged for 5 minutes at 15,000×g to remove insolubles. The compound concentration in the supernatant was measured by HPLC. HPLC measurement conditions are the following. HPLC Conditions Column: Acquity UPLC BEH C18, 1.7 μm, 50×2.1 mm Column temperature: 40° C. Mobile phase: A: 0.1% trifluoroacetic acid containing water B: acetonitrile A/B (min): 95/5 (0)→0/100 (3.5)→0/100 (4)→95/5 (4.01)→95/5 (5) Flow rate: 0.8 mL/min Detection: UV visible detector, measured wavelength 254 nm injected volume: 5 μL
The encapsulation ratio and encapsulation efficiency were calculated by the following equations. Encapsulation ratio (%)=(compound concentration in liposome solution−unencapsulated compound concentration)×100/compound concentration in liposome solution Encapsulation efficiency (%)=(compound concentration in liposome solution−unencapsulated compound concentration)[…]

The nature of data set [2]: Pharmacokinetic test in mice. To be noted: female, BALB/c, mouse, whole blood, iv, liposome formulations, 1.0 mg/kg i.v., trapezoidal method. It counts as in vivo.
The target of data set [3] is CAMK2A (Homo sapiens (Human), UniProt Q9UQM7). The data set is described as follows: Kinase selectivity test (HotSpot Full Panel Kinase profiling). The class given is biochemical. To be noted: 100 nM, ATP 10 μM; read-out: Residual activity (%) CAMK2A. On the procedure:
(§1) Buffer: 20 mM HEPES, pH 7.5, 10 mM MgCl2, 2 mM […] (as needed), 1 mM EGTA, 0.02% Brij35, 0.02 mg/mL BSA, 0.1 mM Na3VO4, 2 mM DTT, 1% DMSO
(§2) Compound concentration: 100 nM

Data set [4] concerns the target T1, CHK1 (Homo sapiens (Human), UniProt O14757). The data set is described as above. To be noted: 100 nM, ATP 10 μM; read-out: Residual activity (%) CHK1. The class given is biochemical. On the procedure:
as §1, §2

The target of data set [5] is MELK (Homo sapiens (Human), UniProt Q14680). The data set is described as above. It counts as biochemical. Particulars: 100 nM, ATP 10 μM; read-out: Residual activity (%) MELK. On the procedure:
as §1, §2

Data set [6] deals with RET (Homo sapiens (Human), UniProt P07949). The data set is described as above. It counts as biochemical. To be noted: 100 nM, ATP 10 μM; read-out: Residual activity (%) RET. As to the method:
as §1, §2

The target in data set [7] is RSK2 (Homo sapiens (Human), UniProt P51812). The description is as above. The class given is biochemical. To be noted: 100 nM, ATP 10 μM; read-out: Residual activity (%) RSK2. As to the method:
as §1, §2

Data set [8] has as its target T1, CHK1. The data set is described as follows: CHK1/CHK2 selectivity test (LabChip mobility shift). The class given is biochemical. To be noted: read-out: IC50 value with respect to CHK1.
Data set [9] addresses hERG current (Homo sapiens (Human), UniProt Q12809). The data set is described as follows: cell-based.
Description: The test compounds were added to cultured hERG (human Ether-a-go-go Related Gene) gene stably expressing CHO cell line cells to achieve 0.27 to 100 μM.
The target of data set [10] is ARKS/NUAK1 (Homo sapiens (Human), UniProt O60285). The data set is described as follows: Kinase selectivity test (HotSpot Full Panel Kinase profiling). The class given is biochemical. To be noted: 100 nM, ATP 10 μM; read-out: Residual activity (%) ARKS/NUAK1. On the procedure: as §1, §2
In data set [11] the target is BRSK1 (Homo sapiens (Human), UniProt Q8TDC3). The description is as above. To be noted: 100 nM, ATP 10 μM; read-out: Residual activity (%) BRSK1. It counts as biochemical. As to the method: as §1, §2
The target in data set [12] is BRSK2 (Homo sapiens (Human), UniProt Q8IWQ3). Described as above. It counts as biochemical. To be noted: 100 nM, ATP 10 μM; read-out: Residual activity (%) BRSK2. As to the method: as §1, §2
Data set [13] deals with CAMK2D (Homo sapiens (Human), UniProt Q13557). The description is as above. It counts as biochemical. Particulars: 100 nM, ATP 10 μM; read-out: Residual activity (%) CAMK2D. As to the method: as §1, §2
The target in data set [14] is CDK8/CYCLIN C (Homo sapiens (Human), UniProt P49336). The data set is described as above. It counts as biochemical. Particulars: 100 nM, ATP 10 μM; read-out: Residual activity (%) CDK8/CYCLIN C. On the procedure: as §1, §2
Data set [15] has as its target CHK2 (Homo sapiens (Human), UniProt O96017). The data set is described as above. It counts as biochemical. To be noted: 100 nM, ATP 10 μM; read-out: Residual activity (%) CHK2. As to the method: as §1, §2
Data set [16] addresses LOK/STK10 (Homo sapiens (Human), UniProt O94804). Described as above. To be noted: 100 nM, ATP 10 μM; read-out: Residual activity (%) LOK/STK10. The class given is biochemical. On the procedure:
as §1, §2

For data set [17], the target named is MARK2/PAR-1BA (Homo sapiens (Human), UniProt Q7KZI7). The data set is described as above. It counts as biochemical. To be noted: 100 nM, ATP 10 μM; read-out: Residual activity (%) MARK2/PAR-1BA (PAR-18A in Table 33). On the procedure:
as §1, §2

Data set [18] addresses MARK3 (Homo sapiens (Human), UniProt P27448). The data set is described as above. The class given is biochemical. To be noted: 100 nM, ATP 10 μM; read-out: Residual activity (%) MARK3. On the procedure: as §1, §2

The structures appear in SMILES notation.

Sequence of MELK (Q14680 whole entry): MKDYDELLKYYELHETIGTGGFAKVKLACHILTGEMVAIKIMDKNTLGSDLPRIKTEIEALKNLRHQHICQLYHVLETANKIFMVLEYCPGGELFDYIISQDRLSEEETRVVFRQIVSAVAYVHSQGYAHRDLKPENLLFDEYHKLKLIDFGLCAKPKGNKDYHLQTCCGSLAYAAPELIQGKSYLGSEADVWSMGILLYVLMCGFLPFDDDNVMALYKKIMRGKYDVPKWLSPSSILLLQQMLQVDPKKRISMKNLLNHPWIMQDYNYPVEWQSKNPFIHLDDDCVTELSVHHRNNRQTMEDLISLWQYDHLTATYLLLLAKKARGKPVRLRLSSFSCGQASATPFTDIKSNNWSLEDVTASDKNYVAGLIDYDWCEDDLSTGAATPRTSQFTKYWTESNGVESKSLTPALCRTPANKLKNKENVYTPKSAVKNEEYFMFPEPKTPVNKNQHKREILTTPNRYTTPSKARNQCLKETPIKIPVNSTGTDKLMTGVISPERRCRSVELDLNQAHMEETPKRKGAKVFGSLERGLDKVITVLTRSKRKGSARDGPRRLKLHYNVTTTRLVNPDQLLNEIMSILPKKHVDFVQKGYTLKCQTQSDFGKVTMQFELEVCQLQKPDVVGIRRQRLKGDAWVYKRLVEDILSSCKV
T1 sequence (O14757 whole entry): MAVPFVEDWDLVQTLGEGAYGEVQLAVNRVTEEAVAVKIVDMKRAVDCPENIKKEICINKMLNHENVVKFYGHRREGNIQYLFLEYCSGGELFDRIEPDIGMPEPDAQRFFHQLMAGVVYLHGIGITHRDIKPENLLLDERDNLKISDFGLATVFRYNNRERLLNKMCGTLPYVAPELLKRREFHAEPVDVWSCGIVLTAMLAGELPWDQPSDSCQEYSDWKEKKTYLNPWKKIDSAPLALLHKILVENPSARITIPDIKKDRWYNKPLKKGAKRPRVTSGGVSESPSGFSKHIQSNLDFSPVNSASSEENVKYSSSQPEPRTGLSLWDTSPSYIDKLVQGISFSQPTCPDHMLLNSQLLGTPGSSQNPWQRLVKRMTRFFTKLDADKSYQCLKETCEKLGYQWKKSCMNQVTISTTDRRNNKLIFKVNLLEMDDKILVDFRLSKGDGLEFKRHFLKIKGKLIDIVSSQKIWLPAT
Sequence of RET (P07949 29-1114): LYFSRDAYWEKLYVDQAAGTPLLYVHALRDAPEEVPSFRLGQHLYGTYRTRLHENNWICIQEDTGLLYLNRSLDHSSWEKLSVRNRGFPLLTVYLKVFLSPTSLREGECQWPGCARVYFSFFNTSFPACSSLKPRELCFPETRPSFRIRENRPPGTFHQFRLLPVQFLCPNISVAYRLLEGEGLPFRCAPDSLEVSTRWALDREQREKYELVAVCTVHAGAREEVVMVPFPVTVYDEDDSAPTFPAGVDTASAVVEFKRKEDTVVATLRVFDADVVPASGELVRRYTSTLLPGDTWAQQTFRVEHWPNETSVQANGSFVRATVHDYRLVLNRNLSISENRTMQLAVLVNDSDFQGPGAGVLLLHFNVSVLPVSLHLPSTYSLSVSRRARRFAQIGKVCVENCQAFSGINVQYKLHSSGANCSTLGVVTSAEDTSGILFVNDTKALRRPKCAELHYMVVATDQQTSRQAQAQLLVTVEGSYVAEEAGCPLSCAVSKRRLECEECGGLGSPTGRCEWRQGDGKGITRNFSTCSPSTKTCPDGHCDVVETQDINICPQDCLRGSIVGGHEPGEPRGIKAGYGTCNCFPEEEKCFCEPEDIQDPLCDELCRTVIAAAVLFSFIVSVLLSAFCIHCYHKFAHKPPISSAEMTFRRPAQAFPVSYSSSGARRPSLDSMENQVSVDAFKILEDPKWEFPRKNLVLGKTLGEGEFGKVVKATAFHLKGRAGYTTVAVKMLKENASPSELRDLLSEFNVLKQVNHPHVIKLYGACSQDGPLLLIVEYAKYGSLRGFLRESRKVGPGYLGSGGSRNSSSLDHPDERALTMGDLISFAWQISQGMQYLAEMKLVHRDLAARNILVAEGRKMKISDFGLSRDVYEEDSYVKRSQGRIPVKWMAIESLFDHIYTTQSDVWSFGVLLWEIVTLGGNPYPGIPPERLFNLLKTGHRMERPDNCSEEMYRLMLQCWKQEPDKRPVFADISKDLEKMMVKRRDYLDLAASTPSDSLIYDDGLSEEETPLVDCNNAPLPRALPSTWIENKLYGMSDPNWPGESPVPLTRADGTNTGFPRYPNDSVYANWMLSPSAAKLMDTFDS
Sequence of RSK2 (P51812 whole entry): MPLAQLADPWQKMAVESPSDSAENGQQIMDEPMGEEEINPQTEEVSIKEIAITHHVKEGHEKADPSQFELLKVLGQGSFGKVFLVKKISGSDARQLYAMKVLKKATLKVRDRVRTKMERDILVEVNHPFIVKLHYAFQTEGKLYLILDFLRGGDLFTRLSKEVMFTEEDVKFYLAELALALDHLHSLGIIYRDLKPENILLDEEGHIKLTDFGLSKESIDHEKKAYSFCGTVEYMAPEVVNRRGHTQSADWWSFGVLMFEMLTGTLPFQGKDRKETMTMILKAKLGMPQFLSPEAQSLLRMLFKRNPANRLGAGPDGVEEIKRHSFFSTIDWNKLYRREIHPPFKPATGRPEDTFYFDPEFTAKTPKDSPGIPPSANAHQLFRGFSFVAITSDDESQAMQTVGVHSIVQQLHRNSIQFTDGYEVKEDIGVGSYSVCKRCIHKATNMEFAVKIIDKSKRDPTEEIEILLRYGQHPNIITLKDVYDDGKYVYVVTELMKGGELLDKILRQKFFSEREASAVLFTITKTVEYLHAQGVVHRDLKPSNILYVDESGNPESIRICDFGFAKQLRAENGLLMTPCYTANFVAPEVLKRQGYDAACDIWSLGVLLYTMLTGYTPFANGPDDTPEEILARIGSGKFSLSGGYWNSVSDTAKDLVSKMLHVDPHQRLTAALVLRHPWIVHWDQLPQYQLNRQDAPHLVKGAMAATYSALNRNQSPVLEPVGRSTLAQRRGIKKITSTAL
Sequence of hERG current (Q12809 whole entry): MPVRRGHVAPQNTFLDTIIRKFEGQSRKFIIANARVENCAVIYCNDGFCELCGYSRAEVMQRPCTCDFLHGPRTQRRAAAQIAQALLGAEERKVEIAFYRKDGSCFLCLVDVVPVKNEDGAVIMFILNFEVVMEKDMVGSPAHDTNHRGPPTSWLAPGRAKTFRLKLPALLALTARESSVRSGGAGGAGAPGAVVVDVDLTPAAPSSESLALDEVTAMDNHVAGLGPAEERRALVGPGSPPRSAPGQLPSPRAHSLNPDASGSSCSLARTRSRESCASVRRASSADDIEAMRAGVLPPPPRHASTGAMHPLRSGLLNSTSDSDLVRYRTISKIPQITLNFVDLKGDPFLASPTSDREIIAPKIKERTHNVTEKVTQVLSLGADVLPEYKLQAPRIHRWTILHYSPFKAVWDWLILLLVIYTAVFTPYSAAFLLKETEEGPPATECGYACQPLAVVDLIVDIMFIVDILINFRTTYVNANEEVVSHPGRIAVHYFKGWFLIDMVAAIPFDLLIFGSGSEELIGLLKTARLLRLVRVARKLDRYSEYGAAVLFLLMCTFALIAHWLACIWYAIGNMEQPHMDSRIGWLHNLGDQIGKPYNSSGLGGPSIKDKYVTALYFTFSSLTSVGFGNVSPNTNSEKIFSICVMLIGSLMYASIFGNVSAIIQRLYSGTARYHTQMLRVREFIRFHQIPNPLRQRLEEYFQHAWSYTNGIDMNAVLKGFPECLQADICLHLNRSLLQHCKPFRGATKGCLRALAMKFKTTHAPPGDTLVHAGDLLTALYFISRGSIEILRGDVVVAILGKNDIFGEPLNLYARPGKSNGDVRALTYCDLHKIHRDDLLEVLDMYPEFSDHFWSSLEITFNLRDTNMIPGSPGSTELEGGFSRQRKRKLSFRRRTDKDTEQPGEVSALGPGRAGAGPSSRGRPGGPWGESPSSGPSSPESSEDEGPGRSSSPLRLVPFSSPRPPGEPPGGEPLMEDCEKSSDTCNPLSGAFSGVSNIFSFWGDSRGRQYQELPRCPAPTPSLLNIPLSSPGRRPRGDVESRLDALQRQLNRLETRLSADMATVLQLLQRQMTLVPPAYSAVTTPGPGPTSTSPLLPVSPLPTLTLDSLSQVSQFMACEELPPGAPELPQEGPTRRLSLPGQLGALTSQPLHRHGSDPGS
Sequence of CHK2 (O96017 whole entry): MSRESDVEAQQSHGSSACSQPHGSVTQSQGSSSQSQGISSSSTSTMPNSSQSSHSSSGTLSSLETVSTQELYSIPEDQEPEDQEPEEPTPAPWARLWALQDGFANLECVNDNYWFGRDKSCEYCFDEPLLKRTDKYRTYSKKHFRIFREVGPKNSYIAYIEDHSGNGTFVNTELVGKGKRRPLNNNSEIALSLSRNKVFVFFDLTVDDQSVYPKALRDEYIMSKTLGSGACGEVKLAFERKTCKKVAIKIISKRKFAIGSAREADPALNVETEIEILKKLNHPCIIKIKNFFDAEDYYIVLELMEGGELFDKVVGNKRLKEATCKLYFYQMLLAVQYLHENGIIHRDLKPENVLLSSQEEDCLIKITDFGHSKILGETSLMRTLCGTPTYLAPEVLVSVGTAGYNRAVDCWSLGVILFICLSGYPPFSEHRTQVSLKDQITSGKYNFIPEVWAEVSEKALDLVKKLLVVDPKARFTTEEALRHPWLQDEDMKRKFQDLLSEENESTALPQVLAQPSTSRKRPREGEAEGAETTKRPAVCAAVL

By AUC(0-t) is commonly meant the area under the concentration-time curve up to a stated or last time point. One may read the IC50 as the concentration that gives 50% inhibition. As for `COc1ccnc(OCCCN)c1-c1cc(Nc2cnc(C#N)cn2)n[nH]1` [Example 1, 5-({5-[2-(3-aminopropoxy)-4-methoxypyridin-3-yl]-1H-pyrazol-3-yl}amino)pyrazine-2-carbonitrile], the “liposome encapsulation efficiency” value in data set [1] was not below 90%. Besides, the Encapsulation efficiency in [1] (concentration upon compound introduction 2 mg/mL) was 91.3%; in [1] (concentration upon compound introduction 3 mg/mL), 91.6%; in [1] (concentration upon compound introduction 4 mg/mL) it was 92.2%. The area under the curve AUC(0-t) in data set [2] was 447 µg·h/mL. The remaining activity at 0.1 µM was determined as 13.9% in data set [3]; 2.87% in data set [4]; 17.2% in data set [5]; 19% in data set [6]; 4.32% in [7]. In addition, the IC50 was less than 0.0003 µM in [8] and 11.5 µM in data set [9].

`COc1cccc(OCCCN)c1-c1cc(Nc2cnc(C#N)cn2)n[nH]1` [Prexasertib, reference compound]: the AUC(0-t) in data set [2] was determined as 236 µg·h/mL. In addition, the remaining activity at 0.1 µM is 17.9% in [10]; 21.7% in data set [11]; 14.4% in [12]; 2.52% in data set [3]; 6.07% in data set [13]; 18.1% in data set [14]. The remaining activity at 0.1 µM is 6.41% in [15]; 6.15% in data set [16]; 14.3% in [17]; 12.6% in [18]; 11.4% in data set [5]; 7.12% in data set [6]. Besides, the remaining activity at 0.1 µM in data set [7] was determined as 0.98%.
